Laboratory results from PubChem BioAssay (NCI).
Where “and” joins values, the source holds several entries; their conditions need not be identical. Equal entries are not always repeated.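 Compound exposure: 48 hours, 5 concentrations, 96-well plates. GI50 is the concentration that inhibits growth by half. TGI denotes the concentration required for complete inhibition of growth.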

Legend:
Experiment in all cases: inhibition of tumour cell growth, NCI panel, 48 h
[1] = test system: BT-549 breast
[2] = test system: CAKI-1 renal
[3] = test system: HCT-116 colon
[4] = test system: NCI/ADR-RES ovarian
[5] = test system: OVCAR-4 ovarian
[6] = test system: PC-3 prostate
[7] = test system: SK-MEL-2 melanoma
[8] = test system: SR leukemia
[9] = test system: TK-10 renal
[10] = test system: UACC-62 melanoma

SMILES	GI50 [1] [µM]	TGI [1] [µM]	GI50 [2] [µM]	TGI [2]	GI50 [3] [µM]	TGI [3]	GI50 [4] [µM]	TGI [4]	GI50 [5] [µM]	TGI [5]	GI50 [6] [µM]	TGI [6] [µM]	GI50 [7] [µM]	TGI [7] [µM]	GI50 [8] [µM]	TGI [8] [µM]	GI50 [9] [µM]	TGI [9] [µM]	GI50 [10] [µM]	TGI [10]
COc1cc2c(cc1C)NC(=O)/C2=C\c1cccc(Oc2ccccc2)c1	12.8	27.9	19.4	41.2 µM	7.88	20.4 µM	12.9	32.4 µM	14.4	35.6 µM	12	25.2	20.1	47.1	5.68	31.4	23.3	50.6	12.5	25.4 µM
CN(CC(=O)N(Cc1ccc(C2CCCCC2)cc1)c1ccc(C(=O)O)c(O)c1)S(=O)(=O)c1c(F)c(F)c(F)c(F)c1F	10.9	23.6	5.09	10.4 µM	3.72	11.9 µM	17.2	38.1 µM	14	27.8 µM	12.2	27.7	2.2	4.76	1.9	4.28	16.5	30.4	3.18	12.1 µM
CCCCS(=O)(=O)CCC(N)C(=O)O (centres undefined)	–	> 100	–	> 100 µM	–	> 100 µM	–	> 100 µM	–	> 100 µM	–	> 100	–	> 100	–	> 100	–	> 100	–	> 100 µM
COc1cc2c(cc1Nc1nc(Nc3ccsc3C(N)=O)c3cc[nH]c3n1)N(C(=O)CN(C)C)CCC2(C)C	2.01	5.6	1.37	6.69 µM	1.05	4.8 µM	2.01	8.49 µM	3.02	6.59 µM	2.55	7.01	0.515	3.63	0.00596	4.6	1.36	4.97	1.77	5.44 µM
CCCCCCCCCCCC1CCCC(C)N1 (centres undefined)	7.39	22.6	4.84	19.5 µM and 116 µM	5.82	> 41.9 µM and 104 µM	11.9	27.3 µM and 161 µM	7.18	22.3 µM and 136 µM	5.57	45	5.88	–	2.63	> 100	6.47	19.3	8.12	23.6 µM and 102 µM
N#CSCC1CC(O)(c2ccccc2)CC(c2ccc(F)cc2)O1 (centres undefined)	1.94	4.31	2.54	8.5 µM	1.63	2.98 µM	1.92	4.77 µM	2.42	8.08 µM	2.49	8.38	1.66	3.39	0.572	3.19	2.07	5.77	2.14	6.12 µM
COc1ccc2c(c1)C(=O)c1c-2c(Nc2ccc(Cl)cc2)nc2ccccc12	8.46	27.7	20.4	> 100 µM	5.03	24 µM	16.6	> 100 µM	10.1	42.9 µM	15.5	63.3	17	56.1	14	58.2	14.3	34.3	11.3	26 µM
